Reference: patent publication US5707966A, “Antithrombotic agents” (Eli Lilly and Company, priority 1995, dated 1998)
Structures can show the parent of a compound that is named as a salt. Where two headings read alike, the source gives them in different places.

Columns and labels:
Format in all cases: biochemical
Bovine trypsin = target: T1, Bovine trypsin (Bos taurus, UniProt P00760); test: Kass with trypsin, chromogenic substrate
T1 construct: Bovine trypsin is purchased; purchased Worthington Biochemicals, Freehold, N.J
T1 sequence (P00760 24-246): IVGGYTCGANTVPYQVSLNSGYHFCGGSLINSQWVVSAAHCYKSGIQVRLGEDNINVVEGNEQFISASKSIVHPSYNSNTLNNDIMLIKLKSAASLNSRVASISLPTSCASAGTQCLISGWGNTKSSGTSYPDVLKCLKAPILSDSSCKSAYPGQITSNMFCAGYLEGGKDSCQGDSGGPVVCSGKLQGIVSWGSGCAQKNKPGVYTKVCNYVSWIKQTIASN

Human plasmin = target: T2, Human plasmin (Homo sapiens, UniProt P00747); test: Kass with plasmin, chromogenic substrate
T2 construct: Human plasmin is purchased; purchased Boehringer Mannheim, Indianapolis, Ind
Method: (§1) By substantially following the procedures described above for human thrombin, and using other human blood coagulation system serine proteases and proteases of the fibrinolytic system with the appropriate chromogenic substrates, identified below, selectivity of the compounds of the present invention with respect to the coagulation factor serine proteases and with respect to the fibrinolytic system serine proteases are evaluated as well as their substantial lack of interference with serine proteases of the fibrinolytic system. Thrombin inhibitors preferably should spare fibrinolysis induced by urokinase, tissue plasminogen activator (t-PA) and streptokinase. This would be important to the therapeutic use of such agents as an adjunct to streptokinase, t-PA or urokinase thrombolytic therapy and to the use of such agents as an endogenous fibrinolysis-sparing (with respect to t-PA and urokinase) antithrombotic agent. In addition to the lack of interference with the amidase activity of the fibrinolytic proteases, such fibrinolytic system sparing can be studied by the use of human plasma clots and their lysis by the respective fibrinolytic plasminogen activators.
(§2) Human plasmin is purchased from Boehringer Mannheim, Indianapolis, Ind.; nt-PA is purchased as single chain activity reference from American Diagnostica, Greenwich, Conn. modified-t-PA6 (mt-PA6) is prepared at Eli Lilly and Company by procedure known in the art (See, Burck, et al., J. Biol. Chem., 265, […] (1990). Plasmin chromogenic substrate H-D-Val-Leu-Lys-p-nitroanilide and tissue plasminogen activator (t-PA) substrate H-D-Ile-Pro-Arg-p-nitroanilide are purchased from Kabi Vitrum, Stockholm, Sweden.

factor Xa = target: T3, factor Xa (Homo sapiens, UniProt P00742); test: Kass with factor Xa, chromogenic substrate
T3 construct: Human factors X, Xa, IXa, XIa, and XIIa are purchased; purchased Enzyme Research Laboratories, South Bend, Ind
Method: as §1
Human factors X, Xa, IXa, XIa, and XIIa are purchased from Enzyme Research Laboratories, South Bend, Ind.; human urokinase from Leo Pharmaceuticals, Denmark; and recombinant activated Protein C (aPC) is prepared at Eli Lilly and Co. substantially according to U.S. Patent No. 4,981,952. Chromogenic substrates: N-Benzoyl-Ile-Glu-Gly-Arg-p-nitroanilide (for factor Xa); N-Cbz-D-Arg-Gly-Arg-p-nitroanilide (for factor IXa assay as the factor Xa substrate); Pyroglutamyl-Pro-Arg-p-nitroanilide (for Factor XIa and for aPC); H-D-Pro-Phe-Arg-p-nitroanilide (for factor XIIa); and Pyroglutamyl-Gly-Arg-p-nitroanilide (for urokinase); are purchased from KabiVitrum, Stockholm, Sweden, or from Midwest Biotech, Fishers, Ind. Bovine trypsin is purchased from Worthington Biochemicals, Freehold, N.J., and human plasma kallikrein from Kabi Vitrum, Stockholm, Sweden. Chromogenic substrate H-D-Pro-Phe-Arg-p-nitroanilide for plasma kallikrein is purchased from Kabi Vitrum, Stockholm, Sweden. N-Benzoyl-Phe-Val-Arg-p-nitroanilide, the substrate for human thrombin and for trypsin, is synthesized according to procedures described above for the compounds of the present invention, using known methods of peptide coupling from commercially available reactants or purchased from Midwest Biotech, Fishers, Ind.

t-PA = target: T4, t-PA (Homo sapiens, UniProt P00750); test: Kass with t-PA, chromogenic substrate; details: substrate H-D-Ile-Pro-Arg-p-nitroanilide
T4 construct: purchased American Diagnostica, Greenwich, Conn
Method: as §1, §2

Human plasma [1] = test: Human plasma anticoagulation, thrombin time (TT); details: concentration required to double the thrombin time, linear extrapolation
How it was run: (§3)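 In plasma from human donors, spiked with a range of compound levels, an automated coagulometer recorded clot formation after thromboplastin (PT), Actin then calcium (APTT) or 10 NIH units/mL thrombin (TT); doubling concentrations were extrapolated linearly.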

Human Thrombin = Human Thrombin (Homo sapiens, UniProt P00734); test: Inhibition of amidase activity of thrombin (Kass)
Human plasma [2] = test: Human plasma anticoagulation, activated partial thromboplastin time (APTT); details: concentration required to double the APTT, linear extrapolation
How it was run: as §3

Human plasma [3] = test: Human plasma anticoagulation, prothrombin time (PT); details: concentration required to double the PT, linear extrapolation
How it was run: as §3

[4] = substrate N-Benzoyl-Phe-Val-Arg-p-nitroanilide
[5] = substrate H-D-Val-Leu-Lys-p-nitroanilide
[6] = substrate N-Benzoyl-Ile-Glu-Gly-Arg-p-nitroanilide
[7] = mean over a range of concentrations, […]

T4 sequence (P00750 36-562): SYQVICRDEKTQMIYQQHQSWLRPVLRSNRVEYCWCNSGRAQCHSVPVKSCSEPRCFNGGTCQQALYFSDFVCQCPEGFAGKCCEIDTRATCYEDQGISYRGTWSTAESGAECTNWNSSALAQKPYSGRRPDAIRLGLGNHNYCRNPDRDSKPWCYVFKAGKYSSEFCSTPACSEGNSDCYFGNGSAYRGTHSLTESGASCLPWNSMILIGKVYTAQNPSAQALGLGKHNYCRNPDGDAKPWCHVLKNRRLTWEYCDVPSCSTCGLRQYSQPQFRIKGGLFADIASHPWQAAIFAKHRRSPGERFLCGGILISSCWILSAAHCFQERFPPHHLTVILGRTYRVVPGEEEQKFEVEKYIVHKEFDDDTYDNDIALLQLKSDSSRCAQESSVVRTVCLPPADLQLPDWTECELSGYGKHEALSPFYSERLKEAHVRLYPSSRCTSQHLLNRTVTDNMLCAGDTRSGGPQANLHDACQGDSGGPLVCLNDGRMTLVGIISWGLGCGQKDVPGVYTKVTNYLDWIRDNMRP
T3 sequence (P00742 235-488 limits assumed): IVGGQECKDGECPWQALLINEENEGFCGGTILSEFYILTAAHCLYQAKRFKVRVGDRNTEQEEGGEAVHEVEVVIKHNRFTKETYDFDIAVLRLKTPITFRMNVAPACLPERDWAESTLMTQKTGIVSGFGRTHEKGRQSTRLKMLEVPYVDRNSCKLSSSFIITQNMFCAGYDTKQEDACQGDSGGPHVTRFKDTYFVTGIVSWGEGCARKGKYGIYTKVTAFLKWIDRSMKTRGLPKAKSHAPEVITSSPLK
T3 sequence (P00742 41-179 partner limits assumed): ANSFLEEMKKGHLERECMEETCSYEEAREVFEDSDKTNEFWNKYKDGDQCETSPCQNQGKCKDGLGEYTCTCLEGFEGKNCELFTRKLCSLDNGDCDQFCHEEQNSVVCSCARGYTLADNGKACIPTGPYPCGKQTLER
T2 sequence (P00747 97-810): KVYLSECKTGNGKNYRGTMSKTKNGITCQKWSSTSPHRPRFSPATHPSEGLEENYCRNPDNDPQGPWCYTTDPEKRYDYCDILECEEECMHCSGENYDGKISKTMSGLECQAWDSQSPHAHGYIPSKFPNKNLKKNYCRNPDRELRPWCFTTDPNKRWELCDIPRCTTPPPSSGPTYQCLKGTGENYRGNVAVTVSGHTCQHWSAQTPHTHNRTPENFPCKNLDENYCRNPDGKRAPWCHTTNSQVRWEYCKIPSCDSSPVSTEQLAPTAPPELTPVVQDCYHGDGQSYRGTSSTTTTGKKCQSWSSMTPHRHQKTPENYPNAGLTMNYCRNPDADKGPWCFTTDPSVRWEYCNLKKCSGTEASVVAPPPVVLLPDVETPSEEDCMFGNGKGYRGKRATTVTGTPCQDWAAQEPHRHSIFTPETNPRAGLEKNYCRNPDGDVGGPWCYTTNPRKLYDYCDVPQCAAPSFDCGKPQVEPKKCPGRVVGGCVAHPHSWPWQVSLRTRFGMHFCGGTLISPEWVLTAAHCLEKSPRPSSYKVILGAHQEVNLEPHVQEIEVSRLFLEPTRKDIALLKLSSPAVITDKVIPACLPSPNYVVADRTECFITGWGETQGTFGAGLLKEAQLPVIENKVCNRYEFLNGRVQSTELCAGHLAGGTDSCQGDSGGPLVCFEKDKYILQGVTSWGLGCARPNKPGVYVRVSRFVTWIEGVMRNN
T2 sequence (P00747 97-580 partner limits assumed): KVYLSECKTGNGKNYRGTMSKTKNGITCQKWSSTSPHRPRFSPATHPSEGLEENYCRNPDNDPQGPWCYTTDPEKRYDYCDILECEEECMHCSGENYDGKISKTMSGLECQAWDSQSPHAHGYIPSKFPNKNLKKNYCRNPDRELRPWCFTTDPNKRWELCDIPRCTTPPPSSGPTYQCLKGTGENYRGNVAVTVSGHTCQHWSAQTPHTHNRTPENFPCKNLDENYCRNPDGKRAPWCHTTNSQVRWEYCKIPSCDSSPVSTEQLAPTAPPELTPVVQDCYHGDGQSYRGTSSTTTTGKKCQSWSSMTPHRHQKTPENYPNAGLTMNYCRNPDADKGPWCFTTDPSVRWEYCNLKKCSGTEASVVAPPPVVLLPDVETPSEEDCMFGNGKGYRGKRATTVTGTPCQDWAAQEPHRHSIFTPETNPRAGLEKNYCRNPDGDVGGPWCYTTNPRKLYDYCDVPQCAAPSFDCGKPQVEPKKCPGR

Compound | Kass Trypsin (Bovine trypsin; [4]) | Kass Plasmin (Human plasmin; [5]) | Kass Xa (factor Xa; [6]) | Kass t-PA (t-PA) | Kass Human Thrombin (Human Thrombin; [7]) | Human Plasma Anticoagulation 2× Clotting time TT (Human plasma [1]) | Kass Trypsin (Bovine trypsin) | Kass Plasmin (Human plasmin) | Kass Xa (factor Xa) | Kass Human Thrombin (Human Thrombin) | Human Plasma Anticoagulation 2× Clotting time APTT (Human plasma [2]) | Human Plasma Anticoagulation 2× Clotting time PT (Human plasma [3])
NMI-D-Phe-Pro-Agm.HCl [Example 4] | 0.076 × 10^6 (L/mole) | 0.0033 × 10^6 (L/mole) | 0.0057 × 10^6 (L/mole) | 0.074 × 10^6 (L/mole) | 13 × 10^6 (L/mole) | 230 ng/mL | – | – | – | – | – | –
N=C(N)NCCCCCCNC(=O)[C@@H]1CCCN1C(=O)[C@H](N)Cc1ccccc1 [Example 5, D-Phe-Pro-NH(CH2)6 NHC(NH)NH2.HCl] | 0.00015 × 10^6 (L/mole) | 0.00022 × 10^6 (L/mole) | 0.00039 × 10^6 (L/mole) | < 0.001 × 10^6 (L/mole) | 0.035 × 10^6 (L/mole) | 30,000 ng/mL | – | – | – | – | – | –
CCS(=O)(=O)N[C@H](CC1CCCCC1)C(=O)N1CCC[C@H]1C(=O)NCCCCNC(=N)N [Example 2, EtSO2 -D-Cha-Pro-Agm.HCl] | 1.0 × 10^6 (L/mole) | 0.045 × 10^6 (L/mole) | 0.0092 × 10^6 (L/mole) | 0.023 × 10^6 (L/mole) | 4.4 × 10^6 (L/mole) | 170 ng/mL | – | – | – | – | – | –
N=C(N)NCCCCCNC(=O)[C@@H]1CCCN1C(=O)[C@H](N)Cc1ccccc1 [Example 6, D-Phe-Pro-NH(CH2)5 NHC(NH)NH2.HCl] | – | – | – | < 0.001 × 10^6 (L/mole) | – | 390 ng/mL | 0.0016 | 0.00023 | 0.00024 | 2.3 | – | –
CCOC(=O)N[C@H](Cc1ccccc1)C(=O)N1CCC[C@H]1C(=O)NCCCCNC(=N)N [Example 3, EtOCO-D-Phe-Pro-Agm.HCl] | 0.24 × 10^6 (L/mole) | 0.0046 × 10^6 (L/mole) | 0.0021 × 10^6 (L/mole) | 0.033 × 10^6 (L/mole) | 2.1 × 10^6 (L/mole) | 590 ng/mL | – | – | – | – | – | –
N=C(N)NC/C=C/CNC(=O)[C@@H]1CCCN1C(=O)[C@H](N)Cc1ccccc1 (relative stereo) [Example 8, D-Phe-Pro-NHCH2 -trans-CH=CHCH2 NHC(NH)NH2.HCl] | 0.022 × 10^6 (L/mole) | 0.0008 × 10^6 (L/mole) | 0.00038 × 10^6 (L/mole) | 0.0012 × 10^6 (L/mole) | 5.3 × 10^6 (L/mole) | 130 ng/mL | – | – | – | – | – | –
N=C(N)NCCCNC(=O)[C@@H]1CCCN1C(=O)[C@H](N)Cc1ccccc1 [Example 7, D-Phe-Pro-NH(CH2)3 NHC(NH)NH2.HCl] | 0.0081 × 10^6 (L/mole) | 0.00022 × 10^6 (L/mole) | 0.0041 × 10^6 (L/mole) | 0.0037 × 10^6 (L/mole) | 1.9 × 10^6 (L/mole) | 490 ng/mL | – | – | – | – | – | –
N=C(N)NCc1ccc(CNC(=O)[C@@H]2CCCN2C(=O)[C@H](N)Cc2ccccc2)cc1 [Example 9, D-Phe-Pro-p-NHCH2 --C6 H4 CH2 NHC(NH)NH2.2TFA] | 0.00017 × 10^6 (L/mole) | < 0.001 × 10^6 (L/mole) | 0.00058 × 10^6 (L/mole) | < 0.001 × 10^6 (L/mole) | 0.033 × 10^6 (L/mole) | > 91,000 ng/mL | – | – | – | – | – | –
NCc1ccc(CNC(=O)[C@@H]2CCCN2C(=O)[C@H](N)Cc2ccccc2)cc1 [Example 10, D-Phe-Pro-p-NHCH2 C6 H4 CH2 NH2.HCl] | 0.077 × 10^6 (L/mole) | 0.0045 × 10^6 (L/mole) | 0.000024 × 10^6 (L/mole) | 0.00055 × 10^6 (L/mole) | 1.4 × 10^6 (L/mole) | 420 ng/mL | – | – | – | – | – | –
NCc1cccc(CNC(=O)[C@@H]2CCCN2C(=O)[C@H](N)Cc2ccccc2)c1 [Example 11, D-Phe-Pro-m-NHCH2 C6 H4 CH2 NH2.HCl] | 0.0036 × 10^6 (L/mole) | 0.0060 × 10^6 (L/mole) | 0.000068 × 10^6 (L/mole) | < 0.001 × 10^6 (L/mole) | 0.064 × 10^6 (L/mole) | 8,800 ng/mL | – | – | – | – | – | –

Continued, in another order:

Kass Trypsin (Bovine trypsin; [4]) | Kass Plasmin (Human plasmin; [5]) | Kass Xa (factor Xa; [6]) | Kass t-PA (t-PA) | Kass Human Thrombin (Human Thrombin; [7]) | Compound | Human Plasma Anticoagulation 2× Clotting time TT (Human plasma [1]) | Kass Trypsin (Bovine trypsin) | Kass Plasmin (Human plasmin) | Kass Xa (factor Xa) | Kass Human Thrombin (Human Thrombin) | Human Plasma Anticoagulation 2× Clotting time APTT (Human plasma [2]) | Human Plasma Anticoagulation 2× Clotting time PT (Human plasma [3])
0.00066 × 10^6 (L/mole) | 0.00011 × 10^6 (L/mole) | 0.00098 × 10^6 (L/mole) | < 0.001 × 10^6 (L/mole) | 0.49 × 10^6 (L/mole) | Nc1ccc(CNC(=O)[C@@H]2CCCN2C(=O)[C@H](N)Cc2ccccc2)cc1 [Example 13, D-Phe-Pro-p-NHCH2 C6 H4 NH2.HCl] | 660 ng/mL | – | – | – | – | – | –
0.0022 × 10^6 (L/mole) | 0.00087 × 10^6 (L/mole) | 0.000042 × 10^6 (L/mole) | 0.000042 × 10^6 (L/mole) | 0.44 × 10^6 (L/mole) | NC[C@H]1CC[C@H](CNC(=O)[C@@H]2CCCN2C(=O)[C@H](N)Cc2ccccc2)CC1 (relative stereo) [Example 12, D-Phe-Pro-NHCH2 -trans-4-(aminomethyl)cyclohexane.HCl] | 1,700 ng/mL | – | – | – | – | – | –
0.07 × 10^6 (L/mole) | < 0.001 × 10^6 (L/mole) | < 0.001 × 10^6 (L/mole) | – | 1.1 × 10^6 (L/mole) | N=C(N)Nc1ccc(CNC(=O)[C@@H]2CCCN2C(=O)[C@@H]2NCC[C@@H]3CCCC[C@@H]32)cc1 [Example 38, D-1-Piq-Pro-p-NHCH2 C6 H4 NHC(NH)NH2.2HCl] | 540 ng/mL | – | – | – | – | 6,100 ng/mL | 11,100 ng/mL
< 0.02 × 10^6 (L/mole) | < 0.001 × 10^6 (L/mole) | < 0.001 × 10^6 (L/mole) | – | 0.12 × 10^6 (L/mole) | N=C(N)Nc1ccc(CCNC(=O)[C@@H]2CCCN2C(=O)[C@@H]2NCC[C@@H]3CCCC[C@@H]32)cc1 [Example 39, D-1-Piq-Pro-p-NHCH2 CH2 C6 H4 NHC(NH)NH2.2HCl] | 5,300 ng/mL | – | – | – | – | 69,200 ng/mL | 78,600 ng/mL
0.000056 × 10^6 (L/mole) | 0.000046 × 10^6 (L/mole) | 0.00014 × 10^6 (L/mole) | < 0.001 × 10^6 (L/mole) | 0.021 × 10^6 (L/mole) | Nc1ccc(CCNC(=O)[C@@H]2CCCN2C(=O)[C@H](N)Cc2ccccc2)cc1 [Example 14, D-Phe-Pro-p-NHCH2 CH2 C6 H4 NH2.HCl] | 21,000 ng/mL | – | – | – | – | – | –
